Measured values: patent US20140200188A1, “2'-FLUORO SUBSTITUTED CARBA-NUCLEOSIDE ANALOGS FOR ANTIVIRAL TREATMENT” (priority 2010, published 2014)

Tests used:
[1] = system: Influenza A virus (A/Hong Kong/8/68); experiment: Influenza A antiviral assay (H3N2), virus-induced cytopathic effect in MDCK cells; format: cell-based; settings: 120 h, Influenza A/Hong Kong/8/68 (H3N2), MOI 0.03, five day incubation, Cell-titer Glo, read-out: EC50 against the influenza virus
Experimental: MDCK cells were seeded in 96-well plates at a density of 1e5 cells per well in 100 μL of MEM culture medium with 10% FBS. Compounds were 3-fold serially diluted in complete MEM culture medium, with 100 μM as the highest concentration. Each concentration was tested in duplicate. Prior to infection, cells were washed once with 200 μL serum-free MEM. Influenza A virus (A/Hong Kong/8/68, Advanced Biotechnology Inc, Columbia, Md.) was added to cells at MOI 0.03 in 100 ul serum-free MEM containing 27 U/mL trypsin (Worthington, Lakewood, N.J.). After 10 minute incubation at room temperature, 100 μL compound dilutions were added to infected cells for a final volume of 200 μL. After five day incubation at 37° C., virus-induced cytopathic effect was determined by adding Cell-titer Glo viability reagents (Promega, Madison, Wis.) and measuring luminescence on a Victor Luminescence plate reader (Perkin-Elmer, Waltham, Mass.). The cytotoxicity of the compounds in MDCK cells was determined in replicate plates in the same way as in antiviral activity assays, except no virus was added to the cell culture. EC50 and CC50 values were calculated by non-linear regression of multiple data sets using XLFit software (IBDS, Guildford, UK).

[2] = target: Influenza RNA polymerase (Influenza A/PR8/34 (H1N1) virus lysate) (Influenza A virus, UniProt P03431); experiment: Influenza RNA polymerase inhibition (IC50) assay; format: biochemical

SMILES | EC50 [1] [µM] | IC50 [2] [µM]
Nc1ncnn2c([C@@H]3O[C@H](CO)[C@@H](O)[C@H]3F)ccc12 [Compound 1, (2R,3R,4R,5S)-5-(4-aminopyrrolo[1,2-f][1,2,4]triazin-7-yl)-4-fluoro-2-(hydroxymethyl)-tetrahydrofuran-3-ol] | 10.5 to 12.7 | –
C[C@@]1(c2ccc3c(N)ncnn23)O[C@H](COP(=O)(O)OP(=O)(O)OP(=O)(O)O)[C@@H](O)[C@H]1F [Compound 9, ((2R,3R,4R,5S)-5-(4-aminopyrrolo[1,2-f][1,2,4]triazin-7-yl)-4-fluoro-3-hydroxy-5-methyltetrahydrofuran-2-yl)methyl tetrahydrogen triphosphate] | – | 2.1 to 2.97
N#C[C@@]1(c2ccc3c(N)ncnn23)O[C@H](COP(=O)(O)OP(=O)(O)OP(=O)(O)O)[C@@H](O)[C@H]1F [Compound 10, ((2R,3R,4R,5R)-5-(4-aminopyrrolo[1,2-f][1,2,4]triazin-7-yl-5-cyano-4-fluoro-3-hydroxytetrahydrofuran-2-yl)methyltetrahydrogen triphosphate] | – | 48.6 to 116
Nc1ncnn2c([C@@H]3O[C@H](COP(=O)(O)OP(=O)(O)OP(=O)(O)O)[C@@H](O)[C@H]3F)ccc12 [Compound 11, ((2R,3R,4R,5S)-5-(4-aminopyrrolo[1,2-f][1,2,4]triazin-7-yl-4-fluoro-3-hydroxy-tetrahydrofuran-2-yl)methyltetrahydrogen triphosphate] | – | 0.95 to 1.59
Nc1nc(F)nn2c([C@@H]3O[C@H](COP(=O)(O)OP(=O)(O)OP(=O)(O)O)[C@@H](O)[C@H]3F)ccc12 [Compound 21, ((2R,3R,4R,5S)-5-(4-amino-2-fluoropyrrolo[1,2-f][1,2,4]triazin-7-yl)-4-fluoro-3-hydroxytetrahydrofuran-2-yl)methyl tetrahydrogen triphosphate] | – | 0.97 to 1.87
